Assay results as given in US9840500B2, “Compounds as dual inhibitors of histone methyltransferases and DNA methyltransferases” (FUNDACIÓN PARA LA INVESTIGACIÓN MÉDICA APLICADA, priority 2014, dated 2017).

Legend:
CEMO-1 = assay: Cell proliferation assay, CEMO-1 (ALL); format: cell-based, human; conditions: Homo sapiens; 48 hours of treatment; Table 3
Experimental: (§1) Cell proliferation was analyzed after 48 hours of in vitro treatment using the CellTiter 96 Aqueous One Solution Cell Proliferation Assay (Promega, Madison, Wis.). This is a colorimetric method for determining the number of viable cells in proliferation.
(§2) For the assay, suspension cells were cultured by triplicate at a density of 1×10^6 cells/ml in 96-well plates (100.000 cells/well, 100 μl/well), except for OCILY-3 and OCILY-10 cell lines which were cultured at a density of 0.5×10^6 cells/ml (50.000 cells/well, 100 μl/well) and for HepG2, Hep3B and PLC/PRF/5 cell ines which were cultured at a density of 3000 cells/well, 100 μl/well). Adherent cells were obtained from 80-90% confluent flasks and 100 μl of cells were seeded at a density of 5000 cells/well in 96-well plates by triplicate. Before addition of the compounds, adherent cells were allowed to attach to the bottom of the wells for 12 hours. In all cases, only the 60 inner wells were used to avoid any border effects.
(§3) After 48 hours of treatment, plates with suspension cells were centrifuged at 800 g for 10 minutes and medium was removed. The plates with adherent cells were flicked to remove medium. Then, cells were incubated with 100 ul/well of medium and 20 ul/well of CellTiter 96 Aqueous One Solution reagent. After 1-3 hours of incubation at 37° C., absorbance was measured at 490 nm in a 96-well plate reader. The background absorbance was measured in wells with only cell line medium and solution reagent. Data was calculated as a percentage of total absorbance of treated cell/absorbance of non treated cells.

DNMT1 = DNMT1 (Homo sapiens, UniProt P26358); assay: DNMT1 enzyme activity assay (TR-FRET, EPIgeneous methyltransferase assay); format: biochemical
DNMT1, sequence (P26358 whole entry): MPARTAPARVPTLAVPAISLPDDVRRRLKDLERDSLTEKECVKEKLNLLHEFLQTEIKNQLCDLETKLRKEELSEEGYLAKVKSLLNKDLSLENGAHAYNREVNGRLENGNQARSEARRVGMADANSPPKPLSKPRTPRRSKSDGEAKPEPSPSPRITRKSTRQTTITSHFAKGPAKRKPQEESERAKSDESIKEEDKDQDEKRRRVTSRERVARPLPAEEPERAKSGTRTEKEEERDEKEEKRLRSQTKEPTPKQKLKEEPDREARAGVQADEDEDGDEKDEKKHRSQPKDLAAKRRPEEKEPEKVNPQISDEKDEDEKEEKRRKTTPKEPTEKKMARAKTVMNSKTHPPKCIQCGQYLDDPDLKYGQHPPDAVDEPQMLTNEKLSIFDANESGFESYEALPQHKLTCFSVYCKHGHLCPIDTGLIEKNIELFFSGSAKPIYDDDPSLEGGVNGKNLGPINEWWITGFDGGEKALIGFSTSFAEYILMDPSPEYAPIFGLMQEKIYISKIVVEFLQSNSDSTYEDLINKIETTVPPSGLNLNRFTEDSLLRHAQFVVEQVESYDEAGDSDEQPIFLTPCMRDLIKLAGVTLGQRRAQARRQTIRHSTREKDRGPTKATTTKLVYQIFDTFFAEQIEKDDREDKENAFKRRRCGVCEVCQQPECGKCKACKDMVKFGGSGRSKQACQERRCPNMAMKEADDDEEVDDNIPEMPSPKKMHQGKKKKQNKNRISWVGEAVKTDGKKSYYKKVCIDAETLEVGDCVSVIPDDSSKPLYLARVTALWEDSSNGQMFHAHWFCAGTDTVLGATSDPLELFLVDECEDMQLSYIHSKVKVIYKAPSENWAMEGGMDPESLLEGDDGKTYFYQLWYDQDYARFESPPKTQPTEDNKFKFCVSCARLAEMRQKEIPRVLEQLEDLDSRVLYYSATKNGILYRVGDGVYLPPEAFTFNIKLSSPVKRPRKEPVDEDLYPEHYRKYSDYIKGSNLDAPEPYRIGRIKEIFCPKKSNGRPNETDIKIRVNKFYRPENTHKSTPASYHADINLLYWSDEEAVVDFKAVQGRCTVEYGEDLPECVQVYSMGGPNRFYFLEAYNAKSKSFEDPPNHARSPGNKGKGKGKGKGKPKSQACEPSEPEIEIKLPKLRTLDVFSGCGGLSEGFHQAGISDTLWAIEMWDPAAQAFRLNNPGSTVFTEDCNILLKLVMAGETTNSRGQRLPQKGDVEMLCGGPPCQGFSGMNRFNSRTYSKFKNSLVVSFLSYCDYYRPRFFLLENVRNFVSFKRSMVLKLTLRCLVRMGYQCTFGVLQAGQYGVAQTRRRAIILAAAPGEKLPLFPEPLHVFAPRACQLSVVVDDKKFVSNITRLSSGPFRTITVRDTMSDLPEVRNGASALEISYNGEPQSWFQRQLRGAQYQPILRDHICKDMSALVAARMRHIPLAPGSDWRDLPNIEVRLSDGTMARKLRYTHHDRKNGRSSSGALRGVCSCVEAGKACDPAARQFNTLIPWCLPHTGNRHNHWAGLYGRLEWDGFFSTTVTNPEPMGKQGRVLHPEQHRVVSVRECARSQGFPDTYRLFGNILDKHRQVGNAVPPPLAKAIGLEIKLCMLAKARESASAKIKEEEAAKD
Experimental: The biochemical assay to measure DNMT1 enzyme activity relies on time-resolved fluorescence energy transfer (TR-FRET) between lumi4-Tb (donor) and d2 (acceptor) using the EPIgeneous methyltransferase assay (CisBio Cat#62SAHPEB). […] TR-FRET signal is inversely proportional to the concentration of SAH, product of DNMT1 enzyme activity, in the sample.
The human DNMT1 was obtained from Reaction Biology Corp. (Cat# DMT-21-124). […] Final percentage of DMSO was 0.5%. • 2 μl of 1 nM DNMT1 enzyme diluted in assay buffer.
(§4) For each well, fluorescence was measured at 620 nm and 665 nm. A ratio (665 nm/620 nm) was then calculated in order to minimize medium interferences. Positive control was obtained in the presence of the vehicle of the compounds. Negative control was obtained in the absence of G9a enzyme activity. Calculated IC50 values were determined using GraphPrism using 4-parameters inhibition curve.

human G9a enzyme = target: T1, human G9a enzyme (Homo sapiens, UniProt Q96KQ7); assay: G9a enzyme activity assay (TR-FRET); format: biochemical
T1 sequence (Q96KQ7 1-1210): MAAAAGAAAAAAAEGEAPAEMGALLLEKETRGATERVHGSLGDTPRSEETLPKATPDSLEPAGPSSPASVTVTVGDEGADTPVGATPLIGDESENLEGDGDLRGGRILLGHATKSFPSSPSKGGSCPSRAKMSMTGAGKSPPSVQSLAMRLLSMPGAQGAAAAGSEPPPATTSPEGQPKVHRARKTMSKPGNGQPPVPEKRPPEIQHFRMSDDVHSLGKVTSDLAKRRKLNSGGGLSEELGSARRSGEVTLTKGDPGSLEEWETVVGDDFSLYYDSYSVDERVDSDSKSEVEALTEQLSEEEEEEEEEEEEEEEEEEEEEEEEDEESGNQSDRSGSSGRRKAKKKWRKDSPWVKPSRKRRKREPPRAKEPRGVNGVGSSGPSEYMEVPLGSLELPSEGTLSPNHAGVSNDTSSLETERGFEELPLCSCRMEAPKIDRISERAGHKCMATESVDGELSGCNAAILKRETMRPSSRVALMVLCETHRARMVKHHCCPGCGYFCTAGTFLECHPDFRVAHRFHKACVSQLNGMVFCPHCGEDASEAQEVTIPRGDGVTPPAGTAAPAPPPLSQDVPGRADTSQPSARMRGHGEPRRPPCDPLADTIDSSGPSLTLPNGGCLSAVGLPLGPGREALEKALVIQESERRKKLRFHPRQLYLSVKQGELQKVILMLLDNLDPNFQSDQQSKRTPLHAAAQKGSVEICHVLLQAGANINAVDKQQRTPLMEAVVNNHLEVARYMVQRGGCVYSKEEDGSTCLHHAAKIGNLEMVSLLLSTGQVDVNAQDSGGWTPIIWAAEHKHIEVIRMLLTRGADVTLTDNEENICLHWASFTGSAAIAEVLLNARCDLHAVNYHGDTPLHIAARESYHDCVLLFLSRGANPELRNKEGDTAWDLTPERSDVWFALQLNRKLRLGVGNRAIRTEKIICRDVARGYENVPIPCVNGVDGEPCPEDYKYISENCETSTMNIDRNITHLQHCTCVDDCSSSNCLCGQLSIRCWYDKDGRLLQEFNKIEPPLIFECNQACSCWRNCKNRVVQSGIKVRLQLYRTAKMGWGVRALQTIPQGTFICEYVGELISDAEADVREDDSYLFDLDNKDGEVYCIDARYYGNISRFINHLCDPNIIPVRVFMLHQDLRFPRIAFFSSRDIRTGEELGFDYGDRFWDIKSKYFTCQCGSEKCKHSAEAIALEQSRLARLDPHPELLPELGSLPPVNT
Experimental: The biochemical assay to measure G9a enzyme activity relies on time-resolved fluorescence energy transfer (TR-FRET) between europium cryptate (donor) and XL665 (acceptor). […] The human G9a enzyme expressed in a baculovirus infected Sf9 cell expression system was obtained from BPS Biosciences (Cat. #51001). […] Final percentage of DMSO was 0.5%. • 2 μl of 1 nM G9a enzyme diluted in assay buffer. […] Final concentration 150 nM. • Then, add 5 μl of streptavidin XL665 beads. Final concentration of 16 μM. • Read the plate after 1 hour of incubation at room temperature.
as §4

PLC/PRF/5 = assay: Cell proliferation assay, PLC/PRF/5 (HCC); format: cell-based; conditions: Homo sapiens, 48 hours of treatment, Table 3
Experimental: as §1, §2, §3

Hep3B = assay: Cell proliferation assay, Hep3B (HCC); format: cell-based; conditions: Homo sapiens, 48 hours of treatment, Table 3
Experimental: as §1, §2, §3

HepG2 = assay: Cell proliferation assay, HepG2 (HCC); format: cell-based; conditions: Homo sapiens, 48 hours of treatment, Table 3
Experimental: as §1, §2, §3

OCI-Ly3 = assay: Cell proliferation assay, OCI-Ly3 (ABC-DLBCL); format: cell-based; conditions: Homo sapiens, 48 hours of treatment, Table 3
Experimental: as §1, §2, §3

Row | Compound | GI50 (CEMO-1) | IC50 (DNMT1) | IC50 (human G9a enzyme) | GI50 (PLC/PRF/5) | GI50 (Hep3B) | GI50 (HepG2) | GI50 (OCI-Ly3)
1 | COc1cc2c(NC3CCCC3)cc(-c3ccc(C)o3)nc2cc1OCCCN1CCCC1 [Compound 3-05] | 100 to 1000 nM | – | – | – | – | – | –
2 | COc1cc2c(NC3CCN(C)CC3)cc(-c3ccc(C)s3)nc2cc1OCCCN1CCCC1 [Compound 3-36] | 100 to 1000 nM | 500 to 1000 nM | < 100 nM | – | – | – | –
3 | COc1cc2c(NC3CCN(C)CC3)cc(-c3ccc(C)[nH]3)nc2cc1OCC1CCNCC1 [Compound 11-05] | ≤ 10000 nM | 100 to 500 nM | < 100 nM | ≤ 10000 nM | ≤ 10000 nM | ≤ 10000 nM | –
4 | COc1cc2c(NCC3CCN(C)CC3)cc(-c3ccc(C)[nH]3)nc2cc1OCCCN1CCCC1 [Compound 3-39] | 100 to 1000 nM | < 100 nM | < 100 nM | – | – | – | –
5 | CCc1ccc(-c2cc(NC3CCC34CCN(C)CC4)c3cc(OC)c(OCCCN4CCCC4)cc3n2)o1 (stereo not shown) [Compound 5-07, 2-(5-ethyl-2-furyl)-6-methoxy-N-(7-methyl-7-azaspiro[3.5]nonan-3-yl)-7-(3-pyrrolidin-1-ylpropoxy)quinolin-4-amine; 2,2,2-trifluoroacetic acid] | – | – | – | 100 to 1000 nM | 100 to 1000 nM | 100 to 1000 nM | < 100 nM
6 | COc1cc2c(NC3CCN(C(C)C)CC3)cc(C3CCCCC3)nc2cc1OCCCN1CCCC1 [Compound 7-05, 2-cyclohexyl-N-(1-isopropyl-4-piperidyl)-6-methoxy-7-(3-pyrrolidin-1-ylpropoxy)quinolin-4-amine; 2,2,2-trifluoroacetic acid] | ≤ 10000 nM | 500 to 1000 nM | < 100 nM | ≤ 10000 nM | ≤ 10000 nM | ≤ 10000 nM | –
7 | COc1cc2c(NC3CC4(CCN(C)CC4)C3)cc(-c3ccc(C)[nH]3)nc2cc1OCCCN1CCCC1 [Compound 5-05, 6-methoxy-N-(7-methyl-7-azaspiro[3.5]nonan-2-yl)-2-(5-methyl-1H-pyrrol-2-yl)-7-(3-pyrrolidin-1-ylpropoxy)quinolin-4-amine; 2,2,2-trifluoroacetic acid] | 1000 to 10000 nM | 100 to 500 nM | < 100 nM | – | – | – | –
8 | CCc1ccc(-c2cc(NC3CC4(CCNCC4)C3)c3cc(OC)c(OCCCN4CCCC4)cc3n2)o1 [Compound 4-03, N-(7-azaspiro[3.5]nonan-2-yl)-2-(5-ethyl-2-furyl)-6-methoxy-7-(3-pyrrolidin-1-ylpropoxy)quinolin-4-amine:2,2,2-trifluoroacetic acid] | 1000 to 10000 nM | < 100 nM | < 100 nM | – | – | – | –
9 | COc1cc2c(NCC3CCN(C)CC3)cc(-c3ccc(C)o3)nc2cc1OCC1CCNCC1 [Compound 11-02] | 1000 to 10000 nM | 100 to 500 nM | 100 to 500 nM | – | – | – | –
10 | COc1cc2c(NC3CCN(C)CC3)cc(-c3ccc(C)o3)nc2cc1OCC1CCNCC1 [Compound 11-01, 6-methoxy-2-(5-methyl-2-furyl)-N-(1-methyl-4-piperidyl)-7-(4-piperidylmethoxy)quinolin-4-amine; 2,2,2-trifluoroacetic acid] | – | – | – | 1000 to 10000 nM | 1000 to 10000 nM | 1000 to 10000 nM | < 100 nM
11 | COc1cc2c(NC3CCN(C)CC3)cc(-c3ccc(C)o3)nc2cc1OC1CC2(CNC2)C1 [Compound 16-01, 7-(2-azaspiro[3.3]heptan-6-yloxy)-6-methoxy-2-(5-methyl-2-furyl)-N-(1-methyl-4-piperidyl)quinolin-4-amine; 2,2,2-trifluoroacetic acid] | 1000 to 10000 nM | 100 to 500 nM | 1000 to 10000 nM | ≤ 10000 nM | ≤ 10000 nM | ≤ 10000 nM | –
12 | COc1cc2c(NC3CC4(CCN(C)CC4)C3)cc(-c3ccc(C)o3)nc2cc1OCCCN1CCCC1 [Compound 5-02] | – | – | – | 1000 to 10000 nM | 1000 to 10000 nM | 1000 to 10000 nM | 100 to 1000 nM
13 | COc1cc2c(NC3CCN(C)C(=O)C3)cc(-c3ccc(C)o3)nc2cc1OCCCN1CCCC1 (stereo not shown) [Compound 3-17] | – | – | – | – | – | – | 100 to 1000 nM
14 | COc1cc2c(NC3CCN(C)CC3)cc(C3CCOCC3)nc2cc1OCCCN1CCCC1 [Compound 7-02, 6-methoxy-N-(1-methyl-4-piperidyl)-7-(3-pyrrolidin-1-ylpropoxy)-2-tetrahydropyran-4-yl-quinolin-4-amine; 2,2,2-trifluoroacetic acid] | – | 1000 to 10000 nM | < 100 nM | – | – | – | –
15 | COc1cc2c(NC3CCC34CCN(C)CC4)cc(-c3ccc(C)o3)nc2cc1OCCCN1CCCC1 (stereo not shown) [Compound 5-01, 6-methoxy-N-(7-methyl-7-azaspiro[3.5]nonan-3-yl)-2-(5-methyl-2-furyl)-7-(3-pyrrolidin-1-ylpropoxy)quinolin-4-amine; 2,2,2-trifluoroacetic acid] | – | – | – | – | – | – | 100 to 1000 nM
16 | COc1cc2c(NC3CCC34CCNCC4)cc(-c3ccc(C)o3)nc2cc1OCCCN1CCCC1 (stereo not shown) [Compound 4-01, N-(7-azaspiro[3.5]nonan-3-yl)-6-methoxy-2-(5-methyl-2-furyl)-7-(3-pyrrolidin-1-ylpropoxy)quinolin-4-amine; 2,2,2-trifluoroacetic acid] | – | 100 to 500 nM | < 100 nM | – | – | – | –
17 | CCc1ccc(-c2cc(NC3CC4(CCN(C5CC5)CC4)C3)c3cc(OC)c(OCCCN4CCCC4)cc3n2)o1 [Compound 19-01, N-(7-cyclopropyl-7-azaspiro[3.5]nonan-2-yl)-2-(5-ethyl-2-furyl)-6-methoxy-7-(3-pyrrolidin-1-ylpropoxy)quinolin-4-amine; 2,2,2-trifluoroacetic acid] | – | 500 to 1000 nM | 1000 to 10000 nM | – | – | – | –
18 | COc1cc2c(NC3CCN(C)C(=O)C3)cc(-c3ccc(C)[nH]3)nc2cc1OCC1CCN(C)CC1 (stereo not shown) [Compound 12-04] | – | 500 to 1000 nM | 1000 to 10000 nM | – | – | – | –
19 | COc1cc2c(NC3CCCC3)cc(-c3ccc(C)[nH]3)nc2cc1OCCCN1CCCC1 [Compound 3-38] | – | 100 to 500 nM | < 100 nM | – | – | – | –
